{"source": "ChEMBL document CHEMBL1201862", "about": "“PubChem BioAssay data set” (2004)", "assay_in_all_cases": "growth of human tumour cells (NCI), 48 h", "key": {"SK-MEL-28": {"test_system": "SK-MEL-28"}, "786-0": {"test_system": "786-0"}, "EKVX": {"test_system": "EKVX"}, "SK-MEL-5": {"test_system": "SK-MEL-5"}, "HOP-62": {"test_system": "HOP-62"}, "COLO 205": {"test_system": "COLO 205"}, "PC-3": {"test_system": "PC-3"}, "MDA-MB-231": {"test_system": "MDA-MB-231"}, "SF-539": {"test_system": "SF-539"}, "HT-29": {"test_system": "HT-29"}, "SK-MEL-2": {"test_system": "SK-MEL-2"}, "NCI-H522": {"test_system": "NCI-H522"}, "NCI-H226": {"test_system": "NCI-H226"}, "HOP-92": {"test_system": "HOP-92"}, "A549": {"test_system": "A549"}, "T47D": {"test_system": "T47D"}, "U-251": {"test_system": "U-251"}, "BT-549": {"test_system": "BT-549"}, "A498": {"test_system": "A498"}, "MCF7": {"test_system": "MCF7"}, "UACC-257": {"test_system": "UACC-257"}, "HCT-116": {"test_system": "HCT-116"}, "SW-620": {"test_system": "SW-620"}, "HCT-15": {"test_system": "HCT-15"}, "HCC 2998": {"test_system": "HCC 2998"}, "SK-OV-3": {"test_system": "SK-OV-3"}, "MOLT-4": {"test_system": "MOLT-4"}, "OVCAR-8": {"test_system": "OVCAR-8"}, "TK-10": {"test_system": "TK-10"}, "Malme-3M": {"test_system": "Malme-3M"}, "UACC-62": {"test_system": "UACC-62"}, "OVCAR-4": {"test_system": "OVCAR-4"}, "RPMI-8226": {"test_system": "RPMI-8226"}, "LOX IMVI": {"test_system": "LOX IMVI"}, "IGROV-1": {"test_system": "IGROV-1"}, "OVCAR-3": {"test_system": "OVCAR-3"}, "CCRF-CEM": {"test_system": "CCRF-CEM"}, "UO-31": {"test_system": "UO-31"}, "DU-145": {"test_system": "DU-145"}, "K562": {"test_system": "K562"}, "ACHN": {"test_system": "ACHN"}, "Hs-578T": {"test_system": "Hs-578T"}, "CAKI-1": {"test_system": "CAKI-1"}, "KM12": {"test_system": "KM12"}, "HL-60": {"test_system": "HL-60"}, "M14": {"test_system": "M14"}, "OVCAR-5": {"test_system": "OVCAR-5"}, "SF-295": {"test_system": "SF-295"}, "SNB-19": {"test_system": "SNB-19"}, "SN12C": {"test_system": "SN12C"}, "NCI-H23": {"test_system": "NCI-H23"}, "NCI/ADR-RES": {"test_system": "NCI/ADR-RES"}, "RXF 393": {"test_system": "RXF 393"}, "MDA-MB-435": {"test_system": "MDA-MB-435"}, "SF-268": {"test_system": "SF-268"}, "MDA-N": {"test_system": "MDA-N"}, "NCI-H460": {"test_system": "NCI-H460"}, "SNB-75": {"test_system": "SNB-75"}}, "note": "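How tested: cells in 96-well plates exposed to compound for 48 hours at five concentrations. At the GI50, growth is halved.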 Calls of active or inactive are those of the source. Cut-off read from the data, not from the text of the source: active = GI50 up to about 1.1 µM and inactive = higher.", "data": [{"smiles": "Cc1c(-c2ccccc2)n[nH]c1NC1(C)C(=O)N(/N=C/c2ccccc2)N=C1c1ccccc1", "note": "(stereo not drawn)", "values": [{"measurement": "GI50", "setting": "SK-MEL-28", "value": "> 100 µM (inactive)"}, {"measurement": "GI50", "setting": "786-0", "value": "> 100 µM (inactive)"}, {"measurement": "GI50", "setting": "EKVX", "value": "> 91.6 µM (inactive)"}, {"measurement": "GI50", "setting": "SK-MEL-5", "value": "7.96 µM (inactive)"}, {"measurement": "GI50", "setting": "HOP-62", "value": "> 100 µM (inactive)"}, {"measurement": "GI50", "setting": "COLO 205", "value": "> 30.5 µM (inactive)"}, {"measurement": "GI50", "setting": "PC-3", "value": "24.9 µM (inactive)"}, {"measurement": "GI50", "setting": "MDA-MB-231", "value": "> 100 µM (inactive)"}, {"measurement": "GI50", "setting": "SF-539", "value": "> 100 µM (inactive)"}, {"measurement": "GI50", "setting": "HT-29", "value": "> 100 µM (inactive)"}, {"measurement": "GI50", "setting": "SK-MEL-2", "value": "> 84.1 µM (inactive)"}, {"measurement": "GI50", "setting": "NCI-H522", "value": "> 100 µM (inactive)"}, {"measurement": "GI50", "setting": "NCI-H226", "value": "> 100 µM (inactive)"}, {"measurement": "GI50", "setting": "HOP-92", "value": "> 100 µM (inactive)"}, {"measurement": "GI50", "setting": "A549", "value": "7.4 µM (inactive)"}, {"measurement": "GI50", "setting": "T47D", "value": "> 26 µM (inactive)"}, {"measurement": "GI50", "setting": "U-251", "value": "> 33.6 µM (inactive)"}, {"measurement": "GI50", "setting": "BT-549", "value": "> 100 µM (inactive)"}, {"measurement": "GI50", "setting": "A498", "value": "> 83.4 µM (inactive)"}, {"measurement": "GI50", "setting": "MCF7", "value": "4.78 µM (inactive)"}, {"measurement": "GI50", "setting": "UACC-257", "value": "> 100 µM (inactive)"}, {"measurement": "GI50", "setting": "HCT-116", "value": "> 59.2 µM (inactive)"}, {"measurement": "GI50", "setting": "SW-620", "value": "> 93.3 µM (inactive)"}, {"measurement": "GI50", "setting": "HCT-15", "value": "> 44.5", "unit": "µM"}, {"measurement": "GI50", "setting": "HCC 2998", "value": "> 100 µM (inactive)"}, {"measurement": "GI50", "setting": "SK-OV-3", "value": "> 100 µM (inactive)"}, {"measurement": "GI50", "setting": "MOLT-4", "value": "10.2 µM (inactive)"}, {"measurement": "GI50", "setting": "OVCAR-8", "value": "> 100 µM (inactive)"}, {"measurement": "GI50", "setting": "TK-10", "value": "> 100 µM (inactive)"}, {"measurement": "GI50", "setting": "Malme-3M", "value": "> 100 µM (inactive)"}, {"measurement": "GI50", "setting": "UACC-62", "value": "> 100 µM (inactive)"}, {"measurement": "GI50", "setting": "OVCAR-4", "value": "31.8 µM (inactive)"}, {"measurement": "GI50", "setting": "RPMI-8226", "value": "5.7 µM (inactive)"}, {"measurement": "GI50", "setting": "LOX IMVI", "value": "> 100 µM (inactive)"}, {"measurement": "GI50", "setting": "IGROV-1", "value": "> 100 µM (inactive)"}, {"measurement": "GI50", "setting": "OVCAR-3", "value": "> 31.6 µM (inactive)"}, {"measurement": "GI50", "setting": "CCRF-CEM", "value": "25.9 µM (inactive)"}, {"measurement": "GI50", "setting": "UO-31", "value": "> 100 µM (inactive)"}, {"measurement": "GI50", "setting": "DU-145", "value": "> 100 µM (inactive)"}, {"measurement": "GI50", "setting": "K562", "value": "6.15 µM (inactive)"}, {"measurement": "GI50", "setting": "ACHN", "value": "24.7 µM (inactive)"}, {"measurement": "GI50", "setting": "Hs-578T", "value": "> 100 µM (inactive)"}, {"measurement": "GI50", "setting": "CAKI-1", "value": "> 100 µM (inactive)"}, {"measurement": "GI50", "setting": "KM12", "value": "38.6 µM (inactive)"}, {"measurement": "GI50", "setting": "HL-60", "value": "46.6 µM (inactive)"}, {"measurement": "GI50", "setting": "M14", "value": "> 87.3 µM (inactive)"}, {"measurement": "GI50", "setting": "OVCAR-5", "value": "> 100 µM (inactive)"}, {"measurement": "GI50", "setting": "SF-295", "value": "68.2 µM (inactive)"}, {"measurement": "GI50", "setting": "SNB-19", "value": "> 100 µM (inactive)"}, {"measurement": "GI50", "setting": "SN12C", "value": "> 19.9 µM (inactive)"}, {"measurement": "GI50", "setting": "NCI-H23", "value": "> 100 µM (inactive)"}, {"measurement": "GI50", "setting": "NCI/ADR-RES", "value": "43.8 µM (inactive)"}, {"measurement": "GI50", "setting": "RXF 393", "value": "> 29.8 µM (inactive)"}, {"measurement": "GI50", "setting": "MDA-MB-435", "value": "52.7 µM (inactive)"}, {"measurement": "GI50", "setting": "SF-268", "value": "> 100 µM (inactive)"}, {"measurement": "GI50", "setting": "MDA-N", "value": "97.5 µM (inactive)"}, {"measurement": "GI50", "setting": "NCI-H460", "value": "> 62.5 µM (inactive)"}, {"measurement": "GI50", "setting": "SNB-75", "value": "> 100 µM (inactive)"}]}]}
